Experimental findings from ChEMBL document CHEMBL4028801, “A multifactorial approach to hepatobiliary transporter assessment enables improved therapeutic compound development” (Toxicol Sci, 2013) are described below.

The target in test [1] is ATP-binding cassette sub-family C member 2 (Homo sapiens, UniProt Q92887). Briefly: Inhibition of human MRP2 overexpressed in Sf9 cell membrane vesicles assessed as uptake of [3H]-estradiol-17beta-D-glucuronide in presence of ATP and GSH measured after 20 mins by membrane vesicle transport assay.
Chain of ATP-binding cassette sub-family C member 2 (Q92887 whole entry): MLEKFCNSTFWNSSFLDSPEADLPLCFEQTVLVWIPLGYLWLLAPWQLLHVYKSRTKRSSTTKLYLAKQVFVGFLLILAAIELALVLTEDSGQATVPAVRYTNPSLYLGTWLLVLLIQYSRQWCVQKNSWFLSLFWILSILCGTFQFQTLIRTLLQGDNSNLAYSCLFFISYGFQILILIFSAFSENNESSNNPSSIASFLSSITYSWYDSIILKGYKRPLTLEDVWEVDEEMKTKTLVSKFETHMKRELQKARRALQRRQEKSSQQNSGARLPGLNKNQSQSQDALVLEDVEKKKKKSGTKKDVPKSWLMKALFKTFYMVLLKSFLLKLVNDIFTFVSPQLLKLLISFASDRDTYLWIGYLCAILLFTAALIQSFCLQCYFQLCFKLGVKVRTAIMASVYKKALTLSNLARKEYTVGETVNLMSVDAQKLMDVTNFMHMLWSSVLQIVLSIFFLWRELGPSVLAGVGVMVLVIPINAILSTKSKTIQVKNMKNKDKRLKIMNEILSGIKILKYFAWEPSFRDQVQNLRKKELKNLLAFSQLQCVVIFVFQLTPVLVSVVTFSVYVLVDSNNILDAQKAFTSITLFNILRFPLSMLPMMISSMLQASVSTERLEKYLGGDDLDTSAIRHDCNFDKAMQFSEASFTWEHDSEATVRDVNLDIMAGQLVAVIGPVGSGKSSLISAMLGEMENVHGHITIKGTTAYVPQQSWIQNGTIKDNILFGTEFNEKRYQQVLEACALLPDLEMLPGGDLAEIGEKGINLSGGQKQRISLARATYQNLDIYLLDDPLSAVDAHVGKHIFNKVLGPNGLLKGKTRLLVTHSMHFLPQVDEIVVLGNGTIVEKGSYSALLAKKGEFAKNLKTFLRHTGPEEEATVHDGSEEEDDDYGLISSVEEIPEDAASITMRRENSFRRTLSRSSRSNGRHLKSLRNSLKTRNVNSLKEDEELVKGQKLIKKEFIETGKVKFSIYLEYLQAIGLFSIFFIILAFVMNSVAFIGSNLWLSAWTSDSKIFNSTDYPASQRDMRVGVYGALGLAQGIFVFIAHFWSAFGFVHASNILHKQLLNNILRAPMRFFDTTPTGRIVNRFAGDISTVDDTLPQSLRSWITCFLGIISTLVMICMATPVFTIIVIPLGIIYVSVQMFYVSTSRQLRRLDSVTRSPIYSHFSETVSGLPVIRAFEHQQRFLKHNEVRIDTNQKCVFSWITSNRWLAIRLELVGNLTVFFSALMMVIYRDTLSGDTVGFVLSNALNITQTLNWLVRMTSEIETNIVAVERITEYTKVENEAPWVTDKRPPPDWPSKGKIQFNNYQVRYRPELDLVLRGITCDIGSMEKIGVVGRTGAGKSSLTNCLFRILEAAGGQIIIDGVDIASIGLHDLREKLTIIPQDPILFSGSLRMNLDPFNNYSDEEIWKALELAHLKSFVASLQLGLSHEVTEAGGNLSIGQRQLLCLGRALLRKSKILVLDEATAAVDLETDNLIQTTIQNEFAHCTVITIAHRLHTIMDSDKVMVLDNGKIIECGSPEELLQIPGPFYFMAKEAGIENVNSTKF
Test [2] has as its target T1, ATP-binding cassette sub-family C member 4 (Homo sapiens, UniProt O15439).
T1 sequence (O15439 whole entry): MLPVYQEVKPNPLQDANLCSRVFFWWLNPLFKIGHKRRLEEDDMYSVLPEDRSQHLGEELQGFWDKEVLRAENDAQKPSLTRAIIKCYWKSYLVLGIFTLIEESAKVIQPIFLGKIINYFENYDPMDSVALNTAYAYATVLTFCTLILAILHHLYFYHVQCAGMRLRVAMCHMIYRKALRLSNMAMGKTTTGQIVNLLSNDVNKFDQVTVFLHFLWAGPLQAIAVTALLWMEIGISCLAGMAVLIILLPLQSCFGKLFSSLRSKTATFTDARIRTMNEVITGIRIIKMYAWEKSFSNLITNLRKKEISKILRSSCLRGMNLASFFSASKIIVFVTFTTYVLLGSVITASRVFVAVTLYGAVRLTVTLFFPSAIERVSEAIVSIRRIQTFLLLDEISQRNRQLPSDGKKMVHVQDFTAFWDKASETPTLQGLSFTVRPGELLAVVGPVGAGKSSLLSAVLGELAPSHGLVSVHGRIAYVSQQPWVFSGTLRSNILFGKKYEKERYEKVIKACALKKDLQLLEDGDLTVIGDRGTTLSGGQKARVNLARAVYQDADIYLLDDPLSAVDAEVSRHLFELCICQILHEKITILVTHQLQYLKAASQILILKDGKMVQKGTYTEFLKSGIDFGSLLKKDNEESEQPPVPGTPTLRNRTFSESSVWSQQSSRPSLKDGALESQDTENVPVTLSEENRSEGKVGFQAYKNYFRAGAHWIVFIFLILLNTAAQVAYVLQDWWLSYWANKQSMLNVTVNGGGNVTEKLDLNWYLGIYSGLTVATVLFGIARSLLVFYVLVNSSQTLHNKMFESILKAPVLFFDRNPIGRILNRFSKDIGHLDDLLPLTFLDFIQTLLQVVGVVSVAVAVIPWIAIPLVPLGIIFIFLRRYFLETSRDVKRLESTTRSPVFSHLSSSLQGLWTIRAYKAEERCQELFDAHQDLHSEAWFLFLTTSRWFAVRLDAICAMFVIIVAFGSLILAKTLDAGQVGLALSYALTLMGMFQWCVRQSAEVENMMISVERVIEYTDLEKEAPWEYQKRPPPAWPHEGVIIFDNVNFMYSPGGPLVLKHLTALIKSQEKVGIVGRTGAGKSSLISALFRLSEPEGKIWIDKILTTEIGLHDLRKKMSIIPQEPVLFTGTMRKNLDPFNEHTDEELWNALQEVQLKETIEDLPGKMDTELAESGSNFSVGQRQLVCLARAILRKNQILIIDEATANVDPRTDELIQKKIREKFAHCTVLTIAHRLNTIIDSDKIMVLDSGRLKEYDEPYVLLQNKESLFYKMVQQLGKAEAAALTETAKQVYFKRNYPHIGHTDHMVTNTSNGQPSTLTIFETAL
Briefly: Inhibition of human MRP4 overexpressed in Sf9 cell membrane vesicles assessed as uptake of [3H]-estradiol-17beta-D-glucuronide in presence of ATP and GSH measured after 20 mins by membrane vesicle transport assay. Type of test: ADME, cell-based.

In test [3] the target is ATP-binding cassette sub-family C member 3 (Homo sapiens, UniProt O15438). The test can be described thus: Inhibition of human MRP3 overexpressed in Sf9 insect cell membrane vesicles assessed as uptake of [3H]-estradiol-17beta-D-glucuronide in presence of ATP and GSH measured after 10 mins by membrane vesicle transport assay. Format: ADME, cell-based.
Chain of ATP-binding cassette sub-family C member 3 (O15438 whole entry): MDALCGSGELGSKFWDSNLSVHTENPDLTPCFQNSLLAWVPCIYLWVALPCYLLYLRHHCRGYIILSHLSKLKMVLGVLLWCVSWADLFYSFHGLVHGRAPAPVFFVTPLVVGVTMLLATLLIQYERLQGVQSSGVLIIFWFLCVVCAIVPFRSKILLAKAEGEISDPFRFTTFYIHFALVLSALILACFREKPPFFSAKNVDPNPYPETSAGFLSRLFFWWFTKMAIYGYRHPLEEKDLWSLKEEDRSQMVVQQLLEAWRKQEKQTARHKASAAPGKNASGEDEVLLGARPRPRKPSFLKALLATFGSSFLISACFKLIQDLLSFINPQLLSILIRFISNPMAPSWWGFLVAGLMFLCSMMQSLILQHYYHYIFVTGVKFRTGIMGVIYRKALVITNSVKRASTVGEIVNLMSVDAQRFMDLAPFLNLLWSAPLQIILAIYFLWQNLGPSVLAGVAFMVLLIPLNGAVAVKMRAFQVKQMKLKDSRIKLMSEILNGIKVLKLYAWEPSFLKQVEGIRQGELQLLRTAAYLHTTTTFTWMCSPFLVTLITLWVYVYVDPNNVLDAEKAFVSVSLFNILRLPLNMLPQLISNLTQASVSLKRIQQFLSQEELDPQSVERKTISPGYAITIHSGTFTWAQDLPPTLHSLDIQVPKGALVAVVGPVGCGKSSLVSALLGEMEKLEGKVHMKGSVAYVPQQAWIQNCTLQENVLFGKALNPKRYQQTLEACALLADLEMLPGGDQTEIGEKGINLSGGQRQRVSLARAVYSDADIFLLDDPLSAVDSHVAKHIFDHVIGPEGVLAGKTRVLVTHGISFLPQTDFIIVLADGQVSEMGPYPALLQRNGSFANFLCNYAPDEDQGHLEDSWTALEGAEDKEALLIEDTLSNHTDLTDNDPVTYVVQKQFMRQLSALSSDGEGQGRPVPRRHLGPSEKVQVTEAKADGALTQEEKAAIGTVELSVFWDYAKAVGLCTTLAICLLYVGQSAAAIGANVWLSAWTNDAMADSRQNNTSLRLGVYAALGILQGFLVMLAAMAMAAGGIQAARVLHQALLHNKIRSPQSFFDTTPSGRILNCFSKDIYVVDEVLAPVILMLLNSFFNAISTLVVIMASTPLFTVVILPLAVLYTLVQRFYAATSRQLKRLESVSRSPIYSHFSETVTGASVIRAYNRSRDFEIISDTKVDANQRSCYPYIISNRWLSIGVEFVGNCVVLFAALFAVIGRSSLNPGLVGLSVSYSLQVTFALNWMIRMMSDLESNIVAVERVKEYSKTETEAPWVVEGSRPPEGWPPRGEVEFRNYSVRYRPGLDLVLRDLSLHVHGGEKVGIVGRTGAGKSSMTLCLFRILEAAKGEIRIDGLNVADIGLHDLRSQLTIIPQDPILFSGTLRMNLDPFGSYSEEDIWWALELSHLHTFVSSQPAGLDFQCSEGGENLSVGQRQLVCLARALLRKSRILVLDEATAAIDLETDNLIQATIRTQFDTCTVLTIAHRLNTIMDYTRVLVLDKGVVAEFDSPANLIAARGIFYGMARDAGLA
In the next test the target is Bile salt export pump (Homo sapiens, UniProt O95342). Briefly: Inhibition of human BSEP overexpressed in Sf9 cell membrane vesicles assessed as uptake of [3H]-taurocholate in presence of ATP measured after 15 to 20 mins by membrane vesicle transport assay. Format: ADME, cell-based.
Chain of Bile salt export pump (O95342 whole entry): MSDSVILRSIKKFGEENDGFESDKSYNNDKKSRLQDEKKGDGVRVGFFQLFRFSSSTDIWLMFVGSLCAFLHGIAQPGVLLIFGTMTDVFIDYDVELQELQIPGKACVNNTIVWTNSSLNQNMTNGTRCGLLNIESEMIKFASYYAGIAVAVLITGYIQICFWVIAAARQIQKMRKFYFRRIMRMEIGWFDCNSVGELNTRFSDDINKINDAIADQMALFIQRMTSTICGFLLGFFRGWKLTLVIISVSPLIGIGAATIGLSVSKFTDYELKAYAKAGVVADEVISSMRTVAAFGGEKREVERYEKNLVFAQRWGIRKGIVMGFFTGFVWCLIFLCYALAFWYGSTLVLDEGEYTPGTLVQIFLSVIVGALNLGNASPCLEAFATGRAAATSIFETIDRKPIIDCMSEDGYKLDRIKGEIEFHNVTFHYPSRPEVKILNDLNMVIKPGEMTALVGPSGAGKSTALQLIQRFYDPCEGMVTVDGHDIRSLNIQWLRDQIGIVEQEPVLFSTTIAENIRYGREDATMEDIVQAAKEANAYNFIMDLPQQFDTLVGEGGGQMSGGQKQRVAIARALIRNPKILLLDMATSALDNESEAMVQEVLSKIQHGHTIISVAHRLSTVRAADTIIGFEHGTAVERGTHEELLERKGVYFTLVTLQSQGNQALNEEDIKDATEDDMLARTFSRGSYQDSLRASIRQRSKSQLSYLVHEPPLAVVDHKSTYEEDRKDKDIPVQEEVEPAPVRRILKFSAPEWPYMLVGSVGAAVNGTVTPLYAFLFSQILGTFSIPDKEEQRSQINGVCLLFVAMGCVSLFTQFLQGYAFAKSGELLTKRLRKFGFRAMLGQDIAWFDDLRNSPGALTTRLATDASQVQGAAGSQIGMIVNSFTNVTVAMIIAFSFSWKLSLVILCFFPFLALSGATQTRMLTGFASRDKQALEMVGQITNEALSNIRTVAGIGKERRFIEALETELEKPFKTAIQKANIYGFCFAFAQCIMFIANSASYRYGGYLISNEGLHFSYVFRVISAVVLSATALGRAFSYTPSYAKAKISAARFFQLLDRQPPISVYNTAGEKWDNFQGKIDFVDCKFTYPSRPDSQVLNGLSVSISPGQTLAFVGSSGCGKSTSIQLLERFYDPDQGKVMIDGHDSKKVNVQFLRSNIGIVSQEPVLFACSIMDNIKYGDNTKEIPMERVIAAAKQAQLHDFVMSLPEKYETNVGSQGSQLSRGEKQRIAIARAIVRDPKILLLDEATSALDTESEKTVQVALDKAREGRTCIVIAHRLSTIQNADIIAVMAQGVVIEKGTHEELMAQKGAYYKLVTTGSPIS

pIC50: −log10 of the molar value. Structures can show the parent of a compound that is named as a salt. Bounds are passed on as bounds.

As a reminder, the pIC50 is the negative decadic logarithm of the IC50, by convention in mol/L. Consider `Clc1ccc2nsnc2c1NC1=NCCN1` [TIZANIDINE], for which the pIC50 (in test [1]; in test [2]; in test [3]; on Bile salt export pump) was below 3.88 throughout.
As for `CCOC(=O)[C@H](CCc1ccccc1)N[C@@H](C)C(=O)N1[C@H](C(=O)O)C[C@@H]2CCC[C@@H]21`, the pIC50 (in test [1]; in test [2]; in test [3]; on Bile salt export pump) was below 3.88 in each case.
Turning to `O=C1OC(OC(=O)c2cccnc2Nc2cccc(C(F)(F)F)c2)c2ccccc21` (stereo not drawn) [TALNIFLUMATE], the pIC50 (in test [1]; in test [2]; in test [3]; at Bile salt export pump) was below 3.88 in each case.
Consider `Fc1ccc([C@@H]2CCNC[C@H]2COc2ccc3c(c2)OCO3)cc1` [PAROXETINE HYDROCHLORIDE], for which the negative-log IC50 (pIC50) (in test [1]; in test [2]; in test [3]; at Bile salt export pump) was below 3.88 each time.
With `COc1cc(NS(C)(=O)=O)ccc1Nc1c2ccccc2nc2ccccc12` [AMSACRINE], the pIC50 was below 3.88 in test [1], 5.13 in test [2], below 3.88 in test [3] and below 3.88 at Bile salt export pump.
Consider `OC(CNCC(O)C1CCc2cc(F)ccc2O1)C1CCc2cc(F)ccc2O1` (stereo not drawn) [NEBIVOLOL HYDROCHLORIDE], for which the pIC50 (in test [1]; in test [2]; in test [3]; at Bile salt export pump) was below 3.88 throughout.
Regarding `CN1C(C(=O)Nc2ccccn2)=C(O)c2sccc2S1(=O)=O` [TENOXICAM], the pIC50 (in test [1]; in test [2]; in test [3]; on Bile salt export pump) was below 3.88 throughout.
Turning to `Cn1c(=O)c2[nH]cnc2n(C)c1=O` [THEOPHYLLINE], the negative-log IC50 (pIC50) (in test [1]; in test [2]; in test [3]; at Bile salt export pump) was below 3.88 each time.
In the case of `CCOC(=O)C1=C(COCCN)NC(C)=C(C(=O)OC)C1c1ccccc1Cl` (stereo not drawn) [AMLODIPINE], the pIC50 (in test [1]; in test [2]; in test [3]; at Bile salt export pump) was below 3.88 each time.
Turning to `Cn1c(=O)n(-c2ccc(C(C)(C)C#N)cc2)c2c3cc(-c4cnc5ccccc5c4)ccc3ncc21` [DACTOLISIB], the pIC50 was below 3.88 in test [1], below 3.88 in test [2], below 3.88 in test [3] and 5.10 at Bile salt export pump.
As for `CC(=O)OCC(CCn1cnc2cnc(N)nc21)COC(C)=O` [FAMCICLOVIR], the pIC50 (in test [1]; in test [2]; in test [3]; at Bile salt export pump) was below 3.88 each time.
For the compound `C[C@H]1COc2c(C3(N)CC3)c(F)cc3c(=O)c(C(=O)O)cn1c23` [PAZUFLOXACIN], the pIC50 (in test [1]; in test [2]; in test [3]; at Bile salt export pump) was below 3.88 throughout.
As to `N[C@@H](Cc1ccc(N(CCCl)CCCl)cc1)C(=O)O`, the pIC50 (in test [1]; in test [2]; in test [3]; on Bile salt export pump) was below 3.88 each time.
`CCN(CC)CCOc1ccc2c(c1)C(=O)c1cc(OCCN(CC)CC)ccc1-2` [TILORONE]: the negative logarithm of the IC50 (pIC50) (in test [1]; in test [2]; in test [3]; on Bile salt export pump) was below 3.88 in each case.
Turning to `N#C[C@@H]1CCCN1C(=O)CNC12CC3CC(CC(O)(C3)C1)C2` [VILDAGLIPTIN], the pIC50 (in test [1]; in test [2]; in test [3]; on Bile salt export pump) was below 3.88 throughout.
Consider `CS(=O)(=O)c1ccc(C2=C(c3ccccc3)C(=O)OC2)cc1` [ROFECOXIB], for which the pIC50 (in test [1]; in test [2]; in test [3]; on Bile salt export pump) was below 3.88 throughout.
As for `C#C[C@]1(O)CC[C@H]2[C@@H]3CCc4cc(O)ccc4[C@H]3CC[C@@]21C` [ETHINYL ESTRADIOL], the pIC50 is below 3.88 in test [1], below 3.88 in test [2], below 3.88 in test [3] and 4.85 on Bile salt export pump.
